One assay has as its target T1, Human Cav2.2 channels (Homo sapiens, UniProt Q00975).
T1 construct: expressed in transfected cells
Briefly: Fluorescent assay for Cav2.2 channels using potassium depolarization (Table 2, In Vitro Activity, Cav 2.2 Activity). In kind it is cell-based. Conditions: for inhibition at 10 µM: read-out: % Inh at 10 μM; for inhibition at 30 µM: read-out: % Inh at 30 μM; for IC50: 30 mM K. The source says:
Human Cav2.2 channels were stably expressed in HEK293 cells along with alpha2-delta and beta subunits of voltage-gated calcium channels. An inwardly rectifying potassium channel (Kir2.3) was also expressed in these cells to allow more precise control of the cell membrane potential by extracellular potassium concentration. At low bath potassium concentration, the membrane potential is relatively negative, and is depolarized as the bath potassium concentration is raised. In this way, the bath potassium concentration can be used to regulate the voltage-dependent conformations of the channels. Compounds are incubated with cells in the presence of low (4 mM) potassium or elevated (12, 25 or 30 mM) potassium to determine the affinity for compound block of resting (closed) channels at 4 mM potassium or affinity for block of open and inactivated channels at 12, 25 or 30 mM potassium. After the incubation period, Cav2.2 channel opening is triggered by addition of higher concentration of potassium (70 mM final concentration) to further depolarize the cell. The degree of state-dependent block can be estimated from the inhibitory potency of compounds after incubation in different potassium concentrations.
Calcium influx through Cav2.2 channels is determined using a calcium sensitive fluorescent dye in combination with a fluorescent plate reader. Fluorescent changes were measured with either a VIPR (Aurora Instruments) or FLIPR (Molecular Devices) plate reader.
1. Seed cells in Poly-D-Lysine Coated 96 or 384-well plate and keep in a 37° C.-10% CO2 incubator overnight 2. Remove media, wash cells with 0.2 mL (96-well plate) or 0.05 mL (384-well plate) Dulbecco's Phosphate Buffered Saline (D-PBS) with calcium & magnesium (Invitrogen; 14040) 3. Add 0.1 mL (96-well plate) or 0.05 mL (384-well plate) of 4 μM fluor-4 (Molecular Probes; F-14202) and 0.02% Pluronic acid (Molecular Probes; P-3000) prepared in D-PBS with calcium & magnesium (Invitrogen; 14040) supplemented with 10 mM Glucose & 10 mM Hepes/NaOH; pH 7.4 4. Incubate in the dark at 25° C. for 60-70 min 5. Remove dye, wash cells with 0.1 mL (96-well plate) or 0.06 mL (384-well plate) of 4, 12, 25, or 30 mM Potassium Pre-polarization Buffer (PPB) 6. Add 0.1 mL (96-well plate) or 0.03 mL (384-well plate) of 4, 12, 25, 30 mM PPB with or without test compound 7. Incubate in the dark at 25° C. for 30 min 8. Read cell plate on VIPR instrument, Excitation=480 nm, Emission=535 nm 9. With VIPR continuously reading, add 0.1 mL (96-well plate) or 0.03 mL (384-well plate) of Depolarization Buffer (DB), which is 2× the final assay concentration, to the cell plate.

Assay [1] has as its system T-type over L-type channels. Conditions: cited from earlier work.

We go through 24 compounds from patent US20090270338A1, “DIARYL-CYCLYLALKYL DERIVATIVES AS CALCIUM CHANNEL BLOCKERS” (priority 2008, published 2009).

Usually IC50 stands for the point on the concentration scale where inhibition reaches its midpoint.

T1 sequence (Q00975 whole entry): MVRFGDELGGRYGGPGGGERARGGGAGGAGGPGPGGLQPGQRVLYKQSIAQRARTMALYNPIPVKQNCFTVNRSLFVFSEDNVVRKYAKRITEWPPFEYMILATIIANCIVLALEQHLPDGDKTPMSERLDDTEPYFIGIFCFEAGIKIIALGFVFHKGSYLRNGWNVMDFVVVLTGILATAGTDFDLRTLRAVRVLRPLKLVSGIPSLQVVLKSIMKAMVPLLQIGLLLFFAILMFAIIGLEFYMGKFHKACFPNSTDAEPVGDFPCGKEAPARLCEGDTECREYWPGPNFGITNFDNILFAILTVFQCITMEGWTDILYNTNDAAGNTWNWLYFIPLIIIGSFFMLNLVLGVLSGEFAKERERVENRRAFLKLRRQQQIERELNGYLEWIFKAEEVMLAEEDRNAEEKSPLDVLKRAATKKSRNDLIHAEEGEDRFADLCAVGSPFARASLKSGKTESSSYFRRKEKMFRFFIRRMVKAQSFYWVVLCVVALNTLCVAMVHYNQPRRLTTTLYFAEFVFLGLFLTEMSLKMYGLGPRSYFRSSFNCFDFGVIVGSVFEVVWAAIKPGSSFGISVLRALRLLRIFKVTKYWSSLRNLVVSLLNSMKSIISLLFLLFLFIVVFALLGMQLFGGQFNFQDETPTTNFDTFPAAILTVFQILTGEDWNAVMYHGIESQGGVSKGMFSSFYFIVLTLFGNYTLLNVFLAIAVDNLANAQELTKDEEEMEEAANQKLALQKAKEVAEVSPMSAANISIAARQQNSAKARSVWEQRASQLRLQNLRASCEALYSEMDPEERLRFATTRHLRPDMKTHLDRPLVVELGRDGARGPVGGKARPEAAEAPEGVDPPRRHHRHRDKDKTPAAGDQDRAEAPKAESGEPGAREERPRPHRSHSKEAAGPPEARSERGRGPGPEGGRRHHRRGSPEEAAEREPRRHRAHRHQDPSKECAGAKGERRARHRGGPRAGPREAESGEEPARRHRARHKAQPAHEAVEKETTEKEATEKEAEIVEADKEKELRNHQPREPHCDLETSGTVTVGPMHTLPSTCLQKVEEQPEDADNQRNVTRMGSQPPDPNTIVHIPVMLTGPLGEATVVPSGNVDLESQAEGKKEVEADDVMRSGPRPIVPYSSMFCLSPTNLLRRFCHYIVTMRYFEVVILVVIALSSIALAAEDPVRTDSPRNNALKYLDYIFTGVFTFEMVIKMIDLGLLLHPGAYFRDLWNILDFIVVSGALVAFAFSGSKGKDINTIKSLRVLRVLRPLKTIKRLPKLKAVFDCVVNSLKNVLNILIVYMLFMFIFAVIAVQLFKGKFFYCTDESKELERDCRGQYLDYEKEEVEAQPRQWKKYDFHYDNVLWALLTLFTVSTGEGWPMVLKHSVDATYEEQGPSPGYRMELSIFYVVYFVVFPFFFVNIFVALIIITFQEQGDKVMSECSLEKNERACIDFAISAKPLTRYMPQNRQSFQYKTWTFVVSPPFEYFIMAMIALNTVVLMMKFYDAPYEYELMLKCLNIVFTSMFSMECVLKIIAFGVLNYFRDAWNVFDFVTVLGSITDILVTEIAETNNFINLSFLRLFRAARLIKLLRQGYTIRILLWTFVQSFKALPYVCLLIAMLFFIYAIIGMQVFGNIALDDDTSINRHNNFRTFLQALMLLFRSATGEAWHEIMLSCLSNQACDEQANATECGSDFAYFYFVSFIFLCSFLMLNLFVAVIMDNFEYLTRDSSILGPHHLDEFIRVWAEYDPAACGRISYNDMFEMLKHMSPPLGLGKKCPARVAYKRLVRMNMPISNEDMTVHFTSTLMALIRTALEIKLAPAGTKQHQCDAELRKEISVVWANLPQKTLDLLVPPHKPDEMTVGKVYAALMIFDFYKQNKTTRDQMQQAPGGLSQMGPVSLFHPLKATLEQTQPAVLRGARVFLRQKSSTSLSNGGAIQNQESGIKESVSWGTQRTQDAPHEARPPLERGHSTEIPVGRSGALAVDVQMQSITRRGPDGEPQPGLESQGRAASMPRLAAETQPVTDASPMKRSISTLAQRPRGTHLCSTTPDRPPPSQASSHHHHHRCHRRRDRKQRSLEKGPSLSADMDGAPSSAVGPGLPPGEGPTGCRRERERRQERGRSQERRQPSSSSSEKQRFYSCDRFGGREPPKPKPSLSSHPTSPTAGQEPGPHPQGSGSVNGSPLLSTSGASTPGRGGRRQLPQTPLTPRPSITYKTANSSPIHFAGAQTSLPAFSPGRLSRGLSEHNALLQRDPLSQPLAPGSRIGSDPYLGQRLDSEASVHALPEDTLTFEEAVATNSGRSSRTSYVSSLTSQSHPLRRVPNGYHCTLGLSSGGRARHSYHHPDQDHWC
T1 sequence (P54289 25-1103 partner): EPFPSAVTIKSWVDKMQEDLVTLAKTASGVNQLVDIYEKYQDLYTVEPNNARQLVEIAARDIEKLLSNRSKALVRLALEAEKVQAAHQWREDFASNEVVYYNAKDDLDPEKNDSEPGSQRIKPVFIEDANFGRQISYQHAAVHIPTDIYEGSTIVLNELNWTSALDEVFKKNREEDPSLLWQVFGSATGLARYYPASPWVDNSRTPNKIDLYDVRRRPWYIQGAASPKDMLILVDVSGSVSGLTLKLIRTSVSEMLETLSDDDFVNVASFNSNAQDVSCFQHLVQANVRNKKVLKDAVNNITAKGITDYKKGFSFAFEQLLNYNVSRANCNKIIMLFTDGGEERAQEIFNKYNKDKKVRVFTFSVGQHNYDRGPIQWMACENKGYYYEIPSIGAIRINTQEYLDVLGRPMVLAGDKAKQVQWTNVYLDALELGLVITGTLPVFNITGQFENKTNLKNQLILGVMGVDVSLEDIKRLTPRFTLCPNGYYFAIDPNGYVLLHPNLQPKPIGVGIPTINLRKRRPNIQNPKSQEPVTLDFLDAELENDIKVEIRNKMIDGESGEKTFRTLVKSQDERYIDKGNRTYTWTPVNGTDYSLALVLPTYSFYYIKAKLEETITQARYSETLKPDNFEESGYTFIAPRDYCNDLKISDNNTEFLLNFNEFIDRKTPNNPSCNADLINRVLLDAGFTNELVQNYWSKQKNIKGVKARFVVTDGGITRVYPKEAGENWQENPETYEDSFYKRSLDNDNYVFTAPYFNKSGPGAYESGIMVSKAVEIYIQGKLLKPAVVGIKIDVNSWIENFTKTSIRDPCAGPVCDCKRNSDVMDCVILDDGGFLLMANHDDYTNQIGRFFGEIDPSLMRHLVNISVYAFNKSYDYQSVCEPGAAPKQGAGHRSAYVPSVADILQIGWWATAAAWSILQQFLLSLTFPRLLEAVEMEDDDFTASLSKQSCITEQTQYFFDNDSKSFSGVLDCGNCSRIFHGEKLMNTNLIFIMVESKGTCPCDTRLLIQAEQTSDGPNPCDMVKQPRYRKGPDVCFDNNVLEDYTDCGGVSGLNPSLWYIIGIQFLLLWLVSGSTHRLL
T1 sequence (P54284 whole entry partner): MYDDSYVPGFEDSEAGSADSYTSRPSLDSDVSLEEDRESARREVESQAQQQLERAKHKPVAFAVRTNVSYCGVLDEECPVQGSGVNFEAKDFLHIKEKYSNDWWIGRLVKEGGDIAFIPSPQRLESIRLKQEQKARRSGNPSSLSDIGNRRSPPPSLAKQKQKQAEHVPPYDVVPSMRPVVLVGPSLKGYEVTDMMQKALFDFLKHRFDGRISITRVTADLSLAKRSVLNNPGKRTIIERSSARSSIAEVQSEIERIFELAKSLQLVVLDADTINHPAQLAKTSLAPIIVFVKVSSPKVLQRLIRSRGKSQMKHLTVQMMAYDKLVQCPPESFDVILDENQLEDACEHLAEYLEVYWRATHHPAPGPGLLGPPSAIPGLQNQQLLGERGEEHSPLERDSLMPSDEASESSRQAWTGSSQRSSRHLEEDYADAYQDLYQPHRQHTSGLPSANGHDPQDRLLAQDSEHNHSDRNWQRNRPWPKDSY

For the compound `Cc1ccccc1C(CC(=O)NC1(C(=O)N2CCN(c3ccccc3)CC2)CCCCC1)c1ccccc1C` [Compound 3, N-(1-(4-phenylpiperazine-1-carbonyl)cyclohexyl)-3,3-dio-tolylpropanamide], on Human Cav2.2 channels, the inhibition at 10 µM worked out at 95%, the inhibition at 30 µM stood at 96% and the half-maximal inhibitory concentration (IC50) worked out at 440 nM.
With `O=C(CC(c1ccccc1)c1ccccc1)NC1(C(=O)N2CCN(c3ccc(F)cc3F)CC2)CCCCC1` [Compound 14, N-(1-(4-(2,4-difluorophenyl)piperazine-1-carbonyl)cyclohexyl)-3,3-diphenylpropanamide], at Human Cav2.2 channels, the inhibition at 10 µM came to 81%, the inhibition at 30 µM came to 86% and the IC50 is 320 nM.
For `COc1ccc(CNC(=O)C2(NC(=O)CC(c3ccccc3)c3ccccc3)CCCCC2)cc1` [Compound 9, 1-(3,3-diphenylpropanamido)-N-(4-methoxybenzyl)cyclohexane carboxamide], in that order: 97%, 102% and 170 nM.
`O=C(CC(c1ccccc1)c1ccccc1)NC1(C(=O)NCc2ccc(O)cc2)CCCCC1` [Compound 18, 1-(3,3-diphenylpropanamido)-N-(4-hydroxybenzyl)cyclohexane carboxamide]: at Human Cav2.2 channels, the inhibition at 10 µM stood at 87% and the inhibition at 30 µM was 97%.
Regarding `Cc1cnccc1CNC(=O)C1(NC(=O)CC(c2ccccc2)c2ccccc2)CCCCC1` [Compound 21, 1-(3,3-diphenylpropanamido)-N-((3-methylpyridin-4-yl)methyl)cyclohexanecarboxamide], on Human Cav2.2 channels, the inhibition at 10 µM was found to be 14% and the inhibition at 30 µM is 51%.
As to `O=C(CC(c1ccccc1)c1ccccc1)NC1(C(=O)NCc2ccc(F)cc2F)CCCCC1` [Compound 10, N-(2,4-difluorobenzyl)-1-(3,3-diphenylpropanamido)cyclohexanecarboxamide], on Human Cav2.2 channels, the inhibition at 10 µM was 96%, the inhibition at 30 µM is 101% and the IC50 worked out at 430 nM.
For `COCC(=O)O[C@]1(CCN(C)CCCc2nc3ccccc3[nH]2)CCc2cc(F)ccc2[C@@H]1C(C)C` [Mibefradil], in assay [1], the “fold selective for T-type over L-type channels” value is on record as 10-30 fold.
Take `O=C(CC(c1ccccc1)c1ccccc1)NC1(C(=O)NCc2cccc(C(F)(F)F)c2)CCCCC1` [Compound 7, 1-(3,3-diphenylpropanamido)-N-(3-(trifluoromethyl)benzyl)cyclohexanecar-boxamide]: on Human Cav2.2 channels, the inhibition at 10 µM worked out at 99%, the inhibition at 30 µM worked out at 102% and the IC50 was 190 nM.
For the compound `Cc1ccccc1C(CC(=O)NC1(C(=O)N2CCN(C(C)(C)C)CC2)CCCCC1)c1ccccc1C` [Compound 2, N-(1-(4-tert-butylpiperazine-1-carbonyl)cyclohexyl)-3,3-dio-tolylpropanamide], at Human Cav2.2 channels, the inhibition at 10 µM amounted to 67% and the inhibition at 30 µM is 92%.
`Cc1ccc(N2CCN(C(=O)C3(NC(=O)CC(c4ccccc4)c4ccccc4)CCCCC3)CC2)cc1C` [Compound 12, N-(1-(4-(3,4-dimethylphenyl)piperazine-1-carbonyl)cyclohexyl)-3,3-diphenylpropanamide]: on Human Cav2.2 channels, the inhibition at 10 µM was found to be 95%, the inhibition at 30 µM worked out at 98% and the IC50 turned out to be 370 nM.
Turning to `Cc1cccnc1CNC(=O)C1(NC(=O)CC(c2ccccc2)c2ccccc2)CCCCC1` [Compound 23, 1-(3,3-diphenylpropanamido)-N-((3-methylpyridin-2-yl)methyl)cyclohexanecarboxamide], on Human Cav2.2 channels, the inhibition at 10 µM was found to be 81% and the inhibition at 30 µM was found to be 88%.
For the compound `Cc1cc(CNC(=O)C2(NC(=O)CC(c3ccccc3)c3ccccc3)CCCCC2)no1` [Compound 20, 1-(3,3-diphenylpropanamido)-N-((5-methylisoxazol-3-yl)methyl)cyclohexanecarboxamide], at Human Cav2.2 channels, the inhibition at 10 µM came to 71% and the inhibition at 30 µM came to 86%.
As to `Cc1ccnc(N2CCN(C(=O)C3(NC(=O)CC(c4ccccc4)c4ccccc4)CCCCC3)CC2)c1` [Compound 16, N-(1-(4-(4-methylpyridin-2-yl)piperazine-1-carbonyl)cyclohexyl)-3,3-diphenylpropanamide], on Human Cav2.2 channels, the inhibition at 10 µM is 81%, the inhibition at 30 µM turned out to be 85% and the IC50 came to 2750 nM.
As to `O=C(CC(c1ccccc1)c1ccccc1)NC1(C(=O)NCc2nccs2)CCCCC1` [Compound 22, 1-(3,3-diphenylpropanamido)-N-(thiazol-2-ylmethyl)cyclohexane carboxamide], at Human Cav2.2 channels, the inhibition at 10 µM was 55% and the inhibition at 30 µM amounted to 77%.
Taken in the same sequence, the figures for `Cc1cnc(CNC(=O)C2(NC(=O)CC(c3ccccc3)c3ccccc3)CCCCC2)cn1` [Compound 19, 1-(3,3-diphenylpropanamido)-N-((5-methylpyrazin-2-yl)methyl)cyclohexanecarboxamide] were 62% and 93%.
`O=C(CC(c1ccccc1)c1ccccc1)NC1(C(=O)N2CCN(c3ccc(C(F)(F)F)cc3)CC2)CCCCC1` [Compound 13, 3,3-diphenyl-N-(1-(4-(4-(trifluoromethyl)phenyl)piperazine-1-carbonyl)cyclohexyl)propanamide]: on Human Cav2.2 channels, the inhibition at 10 µM is 96%, the inhibition at 30 µM came to 95% and the IC50 worked out at 590 nM.
For the compound `O=C(CC(c1ccccc1)c1ccccc1)NC1(C(=O)N2CCN(c3cccc(F)c3)CC2)CCCCC1` [Compound 15, N-(1-(4-(3-fluorophenyl)piperazine-1-carbonyl)cyclohexyl)-3,3-diphenylpropanamide], at Human Cav2.2 channels, the inhibition at 10 µM is 72%, the inhibition at 30 µM is 81% and the IC50 worked out at 330 nM.
With `O=C(CC(c1ccccc1)c1ccccc1)NC1(C(=O)N2CCN(c3ccccc3)CC2)CCCCC1` [Compound 4, 3,3-diphenyl-N-(1-(4-phenylpiperazine-1-carbonyl)cyclohexyl)propanamide], on Human Cav2.2 channels, the inhibition at 10 µM was determined as 80%, the inhibition at 30 µM worked out at 90% and the IC50 amounted to 340 nM.
Take `O=C(CC(c1ccccc1)c1ccccc1)NC1(C(=O)NCc2ccc(F)cc2)CCCCC1` [Compound 8, 1-(3,3-diphenylpropanamido)-N-(4-fluorobenzyl)cyclohexanecarboxamide]: at Human Cav2.2 channels, the inhibition at 10 µM was found to be 99%, the inhibition at 30 µM stood at 102% and the IC50 is 190 nM.
For “3,3-diphenyl-N-(1-(4-phenylpiperazine- 1-carbonyl)cyclohexyl)propanamide [Compound 5]”, on Human Cav2.2 channels, the “% Inh at 10 μM” value worked out at 92%, the “% Inh at 30 μM” value turned out to be 84% and the half-inhibitory concentration (IC50) was determined as 380 nM.
Turning to “N-(1-(4-(4-fluorophenyl)piperazine-1- carbonyl)cyclohexyl)-3,3- diphenylpropanamide [Compound 6]”, at Human Cav2.2 channels, the “% Inh at 10 μM” value is 99%, the “% Inh at 30 μM” value is on record as 100% and the IC50 amounted to 280 nM.
Regarding `CS(=O)(=O)c1ccc(CNC(=O)C2(NC(=O)CC(c3ccccc3)c3ccccc3)CCCCC2)cc1` [Compound 17, 1-(3,3-diphenylpropanamido)-N-(4-(methylsulfonyl)benzyl)cyclohexane carboxamide], on Human Cav2.2 channels, the inhibition at 10 µM was found to be 86% and the inhibition at 30 µM was determined as 96%.
Taken in the same sequence, the figures for `CC(C)(C)N1CCN(C(=O)C2(NC(=O)CC(c3ccccc3)c3ccccc3)CCCCC2)CC1` [Compound 1, N-(1-(4-tert-butylpiperazine-1-carbonyl)cyclohexyl)-3,3-diphenylpropanamide] were 42% and 65%.
Regarding `O=C(CC(c1ccccc1)c1ccccc1)NC1(C(=O)N2CCN(c3ccc(Cl)cc3)CC2)CCCCC1` [Compound 11, N-(1-(4-(4-chlorophenyl)piperazine-1-carbonyl)cyclohexyl)-3,3-diphenylpropanamide], on Human Cav2.2 channels, the inhibition at 10 µM was 93%, the inhibition at 30 µM worked out at 101% and the IC50 was 690 nM.
